Read-outs that look alike come from different tables or passages of the source.

In experiment [1] the target is EGFR (D770-N771 ins NPG T790M) kinase (Homo sapiens (Human), UniProt P00533, INS770NPG/T790M). Nature of the experiment: In-vitro enzyme experiment 1 (HTRF kinase assay), EGFR D770-N771 ins NPG T790M. The format is biochemical. How it is done: (§1) The specific experiment was as follows: • 1. Preparation of 1× concentration kinase buffer • 1 volume of 5 times concentration of an enzyme buffer diluted with 4 volumes of distilled water; 5 mM magnesium chloride; 1 mM DTT; and 1 mM MnCl2. • 2. Test method of activity of compound • a) a compound diluent was transferred to each well of an assay plate (784075, Greiner) using Echo 550; • b) the assay plate was sealed and centrifuged at 1,000 g for 1 min; • c) 2×EGFR (D770-N771 ins NPG T790M) was prepared in a 1× kinase buffer; • d) 5 μl of the 2×EGFR (D770-N771 ins NPG T790M) was added to a 384-well assay plate (784075, Greiner); • e) the assay plate was centrifuged at 1,000 g for 30 s and incubated at room temperature for 10 min; • f) 2× TK-substrate-biotin (2 μM) and ATP were added to the 1× kinase buffer and mixed; • g) the reaction was started after adding 5 μl of the TK-substrate-biotin (2 μM) and ATP mixture; • h) the assay plate was centrifuged at 1,000 g for 30 s; and the assay plate was sealed and incubated at room temperature for 40 min; • i) 4× Sa-XL 665 was prepared in an HTRF detection buffer; • j) 5 μl of the Sa-XL 665 and 5 μl of a TK-antibody-cryptate were added to each well of the assay plate; • k) the assay plate was centrifuged at 1,000 g for 30 s and incubated at room temperature for 1 h; and • l) fluorescence signals at 615 nm (cryptate) and 665 nm (XL665) were read on an Envision 2104 reader. • 3. Data analysis • 3.1 Calculation of ratio (665/615 nm) of each well • 3.2 Calculation of inhibition rate
(§2) [formula] • 3.3 Calculation of IC50 value of compound and drawing dose-effect curve of compound • IC50 values were calculated using GraphPad 6.0 by applying a non-linear regression curve (dose-effect relationship-variable slope) of the logarithm of the compound concentration versus the inhibition rate.
Y=lowest value+(highest value−lowest value)/(1+10^((Log IC50−X)×slope)) • X: logarithm of inhibitor concentration; and Y: inhibition rate. • 3.4 Double test report • 3.4.1 After one tester completed a report, another tester again checked the report to ensure that data analysis was correct. • 3.4.2 The data was exported from the software and manually analyzed. • 3.4.2.1 The rate was converted into the inhibition rate. All the IC50 values were first calculated with the inhibition rate using Prism GraphPad 6.0. • 3.4.2.2 Then the IC50 value was recalculated using the ratio to check the accuracy of the analysis. • 3.4.3 The number of all the compounds was ensured to be correct.
(TR-FRET usually uses a lanthanide donor and a delayed reading to cut background.)

In experiment [2] the target is EGFR D770-N771 ins NPG kinase (Homo sapiens (Human), UniProt P00533, INS770NPG). Nature of the experiment: In-vitro enzyme experiment 1 (HTRF kinase assay), D770-N771 ins NPG kinase. Format: biochemical.
In experiment [3] the test system is KC-1362 BaF3-EGFR D770-N771 ins NPG cells. Briefly: Anti-proliferative activity on KC-1362 BaF3-EGFR D770-N771 ins NPG cells. The format is cell-based. The conditions noted are these: Ba/F3 EGFR.
The subject of a further experiment is A549 EGFR-WT. Nature of the experiment: Cell proliferation inhibition experiment (CCK-8), A549. The conditions noted are these: Homo sapiens, A549, 72 h, read-out: cell proliferation inhibition IC50 (μM) A549, 72 h, CCK-8.
Experiment [4] concerns KC-1474:PC-9 EGFR-Del19/T790M/C797S. Briefly: Cell proliferation inhibition experiment (CCK-8), KC-1474. The conditions noted are these: Homo sapiens, 72 h. The format is cell-based. An excerpt: (§3) Inhibition rate %=[(A0−AS)/(A0−AC)]×100%.
The next experiment has as its system HCC827 EGFR-Del19. Nature of the experiment: Cell proliferation inhibition experiment (CCK-8), HCC827. The format is cell-based. To be noted: Homo sapiens, 72 h.
Excerpt: as §3

A further experiment deals with PC-9 EGFR-Del19. Briefly: Cell proliferation inhibition experiment (CCK-8), PC-9. To be noted: Homo sapiens, 72 h. The format is cell-based.
Excerpt: as §3

Experiment [5] concerns KC-0178:NCI-1975 EGFR-L858R/T790M/C797S. Nature of the experiment: Cell proliferation inhibition experiment (CCK-8), KC-0178. The format is cell-based. To be noted: Homo sapiens, 72 h.
Excerpt: as §3

The subject of a further experiment is H1975 EGFR-L858R/T790M. Briefly: Cell proliferation inhibition experiment (CCK-8), H1975. The format is cell-based. To be noted: Homo sapiens, NCI-H1975, 72 h.
Excerpt: as §3

Experiment [6] deals with EGFR-Del19/T790M/C797S kinase (Homo sapiens, UniProt P00533, C797S/T790M, form not given). Briefly: In-vitro enzyme experiment 2 (HTRF kinase assay), EGFR Del19 T790M C797S. The format is biochemical. To be noted: read-out: enzyme inhibition IC50 (nM) EGFR-Del19/T790M/C797S. Here is the method: as §1, with “Preparation of 1× concentration kinase buffer • 1 volume of 5 times concentration of an enzyme buffer diluted with 4 volumes of distilled water; 5 mM magnesium chloride; 1 mM DTT; and 1 mM MnCl2. • 2.” left out
as §2
The preparation of the kinase buffer, the test method of the activity of the compound, and the data analysis referred to the relevant definitions in example 117, wherein step c) of the test method of the activity of the compound was replaced by preparing 2×EGFR Del19 T790M C797S in the 1× kinase buffer.

EGFR D770-N771 ins NPG kinase, sequence (P00533 other isoform, or with tags, fused parts or gaps del 1-668/ins NPG behind 770 limits assumed): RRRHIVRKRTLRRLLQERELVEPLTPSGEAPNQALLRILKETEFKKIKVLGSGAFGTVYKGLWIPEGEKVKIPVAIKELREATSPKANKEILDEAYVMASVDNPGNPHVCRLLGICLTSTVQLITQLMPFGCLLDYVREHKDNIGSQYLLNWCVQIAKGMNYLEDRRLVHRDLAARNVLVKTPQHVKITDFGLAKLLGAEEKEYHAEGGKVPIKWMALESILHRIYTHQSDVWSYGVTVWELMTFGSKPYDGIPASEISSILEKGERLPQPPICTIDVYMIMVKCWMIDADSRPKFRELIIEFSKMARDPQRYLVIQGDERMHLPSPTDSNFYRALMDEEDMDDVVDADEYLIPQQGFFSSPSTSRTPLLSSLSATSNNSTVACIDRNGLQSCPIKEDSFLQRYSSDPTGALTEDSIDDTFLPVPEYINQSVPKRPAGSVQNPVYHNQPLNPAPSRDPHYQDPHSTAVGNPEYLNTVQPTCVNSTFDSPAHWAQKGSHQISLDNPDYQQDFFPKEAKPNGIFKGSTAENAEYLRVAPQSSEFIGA
EGFR-Del19/T790M/C797S kinase, sequence (P00533 25-1210 T790M/C797S limits assumed, form open): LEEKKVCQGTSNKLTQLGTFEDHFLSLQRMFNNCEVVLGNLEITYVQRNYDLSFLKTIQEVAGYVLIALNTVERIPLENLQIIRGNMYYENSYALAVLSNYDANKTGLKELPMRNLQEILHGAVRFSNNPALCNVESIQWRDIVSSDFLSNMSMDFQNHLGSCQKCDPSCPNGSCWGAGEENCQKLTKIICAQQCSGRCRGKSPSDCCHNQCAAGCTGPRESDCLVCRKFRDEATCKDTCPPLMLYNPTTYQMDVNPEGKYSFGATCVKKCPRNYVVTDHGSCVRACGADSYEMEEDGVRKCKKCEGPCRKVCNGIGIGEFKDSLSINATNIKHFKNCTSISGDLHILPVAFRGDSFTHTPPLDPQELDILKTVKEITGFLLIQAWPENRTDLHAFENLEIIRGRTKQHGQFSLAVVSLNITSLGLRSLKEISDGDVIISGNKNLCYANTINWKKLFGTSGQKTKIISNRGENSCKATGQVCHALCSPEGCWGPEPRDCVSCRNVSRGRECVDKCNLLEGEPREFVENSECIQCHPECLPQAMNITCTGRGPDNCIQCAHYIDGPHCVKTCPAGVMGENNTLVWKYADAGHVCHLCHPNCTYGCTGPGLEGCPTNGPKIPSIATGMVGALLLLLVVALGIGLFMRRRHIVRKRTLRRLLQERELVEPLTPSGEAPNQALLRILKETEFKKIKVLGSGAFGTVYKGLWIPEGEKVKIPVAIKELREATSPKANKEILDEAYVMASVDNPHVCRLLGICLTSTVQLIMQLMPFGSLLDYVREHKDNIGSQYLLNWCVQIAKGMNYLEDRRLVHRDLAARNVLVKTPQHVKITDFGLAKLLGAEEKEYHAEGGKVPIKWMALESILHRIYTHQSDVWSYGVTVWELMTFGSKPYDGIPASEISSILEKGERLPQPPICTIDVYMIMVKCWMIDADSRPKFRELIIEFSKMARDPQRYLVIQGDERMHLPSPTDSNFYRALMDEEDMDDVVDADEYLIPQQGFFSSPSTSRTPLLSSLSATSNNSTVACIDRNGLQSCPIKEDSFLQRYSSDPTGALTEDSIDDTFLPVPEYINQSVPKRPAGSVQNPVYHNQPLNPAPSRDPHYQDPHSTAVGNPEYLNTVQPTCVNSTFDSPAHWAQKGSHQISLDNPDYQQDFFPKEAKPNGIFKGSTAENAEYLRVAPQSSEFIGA
EGFR (D770-N771 ins NPG T790M) kinase, sequence (P00533 other isoform, or with tags, fused parts or gaps T790M/del 1-668/ins NPG behind 770 limits assumed): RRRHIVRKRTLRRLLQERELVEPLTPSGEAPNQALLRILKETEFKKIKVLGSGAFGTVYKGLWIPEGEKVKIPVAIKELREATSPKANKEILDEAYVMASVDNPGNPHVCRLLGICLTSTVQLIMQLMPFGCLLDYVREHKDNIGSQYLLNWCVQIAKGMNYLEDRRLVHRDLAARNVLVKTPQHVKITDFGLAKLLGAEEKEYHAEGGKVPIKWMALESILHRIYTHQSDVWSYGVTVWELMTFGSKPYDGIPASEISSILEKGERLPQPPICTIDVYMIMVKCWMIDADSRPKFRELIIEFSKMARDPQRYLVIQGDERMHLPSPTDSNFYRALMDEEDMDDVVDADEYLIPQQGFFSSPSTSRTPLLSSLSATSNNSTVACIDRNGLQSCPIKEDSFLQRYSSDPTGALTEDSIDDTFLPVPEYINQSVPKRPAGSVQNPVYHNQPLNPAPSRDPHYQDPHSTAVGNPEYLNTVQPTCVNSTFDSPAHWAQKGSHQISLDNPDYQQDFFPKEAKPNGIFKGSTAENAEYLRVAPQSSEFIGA

Consider `C=CC(=O)N1CC[C@@H](Nc2nc(Nc3ccc(N4CCN(C)CC4)cc3)nc3[nH]cc(C(=O)c4ccc(F)cc4)c23)C1` [Example 26], for which the IC50 in experiment [1] was determined as 0.00631 µM; in experiment [2] it was 0.00352 µM; in [3], 0.15 µM; with A549 EGFR-WT (Table 5 numeric), 0.52 µM.
`CN1CCN(c2ccc(Nc3nc(NC4CCOCC4)c4c(C(=O)c5ccc(F)cc5)c[nH]c4n3)cc2)CC1` [Example 40]: the IC50 is below 0.1 µM in [4]; 0.1 to 1 µM in the experiment on HCC827 EGFR-Del19; 0.1 to 1 µM in the experiment with PC-9 EGFR-Del19; 0.1 to 1 µM with A549 EGFR-WT; 0.23 µM with A549 EGFR-WT (Table 5 numeric).
Take `CN1CCN(c2ccc(Nc3nc(N[C@H]4CC[C@H](CO)CC4)c4c(C(=O)c5ccc(F)cc5)c[nH]c4n3)cc2)CC1` [Example 42]: the IC50 in experiment [2] was 0.00444 µM; in [3], 0.035 µM; in experiment [4], below 0.1 µM; in experiment [5] it was 1 to 2 µM; in the experiment on HCC827 EGFR-Del19, 0.1 to 1 µM; in the experiment with PC-9 EGFR-Del19, below 0.1 µM. The IC50 lay within 0.1 to 1 µM in the experiment with H1975 EGFR-L858R/T790M and 1 to 2 µM in the experiment with A549 EGFR-WT.
`CN1CCN(c2ccc(Nc3nc(NC4CCCCC4O)c4c(C(=O)c5ccc(F)cc5)c[nH]c4n3)cc2)CC1` (stereo not shown) [Example 43]: the IC50 lay within 100 to 600 nM in experiment [6], 0.1 to 1 µM with HCC827 EGFR-Del19, 0.1 to 1 µM in the experiment with PC-9 EGFR-Del19 and 0.1 to 1 µM with H1975 EGFR-L858R/T790M.
`C=CC(=O)N1CC[C@H](Nc2nc(Nc3ccc(N4CCN(C)CC4)cc3)nc3[nH]cc(C(=O)c4ccccc4F)c23)C1` [Example 46]: the figures for the IC50 in the experiment with HCC827 EGFR-Del19, with PC-9 EGFR-Del19 and with H1975 EGFR-L858R/T790M were 0.1 to 1 µM, below 0.1 µM and below 0.1 µM, respectively.
Take `CN1CCN(c2ccc(Nc3nc(NC45CC6CC(C4)C(O)C(C6)C5)c4c(C(=O)c5ccc(F)cc5)c[nH]c4n3)cc2)CC1` (stereo not shown) [Example 71]: the IC50 in [1] was 0.00927 µM; in experiment [2] it was 0.00454 µM; in experiment [3], 0.07 µM; in [6] it was 10 to 100 nM.
In the case of `O=C(c1ccc(F)cc1)c1c[nH]c2nc(Nc3ccc(N4CCOCC4)cc3)nc(N[C@H]3CC[C@H](CO)CC3)c12` [Example 79], the IC50 in experiment [5] was below 0.1 µM; with HCC827 EGFR-Del19, below 0.1 µM; in the experiment with PC-9 EGFR-Del19, 0.1 to 1 µM; in the experiment on H1975 EGFR-L858R/T790M it was 0.1 to 1 µM; with A549 EGFR-WT, 0.1 to 1 µM.
With `O=C(c1cccc(F)c1)c1c[nH]c2nc(Nc3ccc(N4CCOCC4)cc3)nc(N[C@H]3CC[C@H](CO)CC3)c12` [Example 92], the IC50 was below 0.1 µM in the experiment with HCC827 EGFR-Del19, 0.1 to 1 µM with PC-9 EGFR-Del19, below 0.1 µM in the experiment with H1975 EGFR-L858R/T790M and 0.07 µM with A549 EGFR-WT (Table 5 numeric).
Take `CCN1CCN(c2ccc(Nc3nc(N[C@H]4CC[C@@H](CO)CC4)c4c(C(=O)c5ccc(F)cc5)c[nH]c4n3)cc2)CC1` [Example 104]: the IC50 was 0.0114 µM in [1]; 0.00272 µM in [2]; 0.16 µM in [3]; below 10 nM in [6]; below 0.1 µM in [4]; 0.1 to 1 µM in experiment [5]. The IC50 in the experiment on PC-9 EGFR-Del19 and with H1975 EGFR-L858R/T790M was below 0.1 µM throughout.
As for `C=CC(=O)N1CC[C@@H](Nc2nc(Nc3cnn(C)c3)nc3[nH]cc(C(=O)c4ccc(F)cc4)c23)C1` [Example 109], the IC50 was 0.00727 µM in experiment [1]; 0.003 µM in experiment [2]; 0.12 µM in [3]; 0.1 to 1 µM in the experiment with HCC827 EGFR-Del19; below 0.1 µM in the experiment on PC-9 EGFR-Del19; 0.1 to 1 µM with H1975 EGFR-L858R/T790M. In addition, the IC50 with A549 EGFR-WT lay in the range of 0.1 to 1 µM.
For `Cn1cc(Nc2nc(N[C@H]3CC[C@H](CO)CC3)c3c(C(=O)c4ccc(F)cc4)c[nH]c3n2)cn1` [Example 110], the IC50 was 10 to 100 nM in experiment [6]; 0.1 to 1 µM in experiment [4]; below 0.1 µM in experiment [5]; below 0.1 µM in the experiment with HCC827 EGFR-Del19; below 0.1 µM with PC-9 EGFR-Del19; 0.1 to 1 µM in the experiment on A549 EGFR-WT.
For `Cn1cc(Nc2nc(N[C@H]3CC[C@@H](CO)CC3)c3c(C(=O)c4ccc(F)cc4)c[nH]c3n2)cn1` [Example 114], the IC50 was 0.0182 µM in [1]; 0.00412 µM in [2]; 0.16 µM in [3]; below 10 nM in experiment [6]; below 0.1 µM in experiment [4]; 0.1 to 1 µM in experiment [5]. Further, the IC50 is below 0.1 µM with PC-9 EGFR-Del19, below 0.1 µM in the experiment on H1975 EGFR-L858R/T790M and 0.1 to 1 µM with A549 EGFR-WT.
Turning to `CN1CCC(n2cc(Nc3nc(N[C@H]4CC[C@@H](CO)CC4)c4c(C(=O)c5ccc(F)cc5)c[nH]c4n3)cn2)CC1` [Example 115], the IC50 in experiment [1] is 0.00816 µM; in experiment [2], 0.00246 µM; in experiment [3], 0.56 µM; in [6], below 10 nM; in experiment [4], 0.1 to 1 µM; in [5], 1 to 2 µM. The IC50 with PC-9 EGFR-Del19 is 0.1 to 1 µM; in the experiment with H1975 EGFR-L858R/T790M, 0.1 to 1 µM; with A549 EGFR-WT, 1 to 2 µM.

Values taken from patent publication US20250122202A1, “EGFR INHIBITOR, PREPARATION METHOD THEREFOR AND USE THEREOF” (SHANDONG NEW TIME PHARMACEUTICAL CO., LTD., priority 2021, published 2025).
